Test results as given in patent EP4631938A1, “NITROGEN-CONTAINING HETEROCYCLE WITH SEROTONIN RECEPTOR-BINDING ACTIVITY AND CARBOCYCLIC DERIVATIVE” (Shionogi & Co., Ltd, priority 2022, dated 2024).
pKi: −log10 of the molar value. Where two headings read alike, the source gives them in different places.

How the values were obtained:
[1] = target: T1, human recombinant 5-HT2C receptor (Homo sapiens, UniProt P28335); experiment: Test Example 2-2: 5-HT2C receptor binding inhibition test ([3H]-Mesulergine; non-specific ligand Ketanserin); details: non-specific binding with 500 µmol/L Ketanserin, 37°C, 2 hours
T1 construct: expressed in transfected cells; host or cells: Jump-In HEK cells (membrane preparation)
T1 sequence (P28335 33-458): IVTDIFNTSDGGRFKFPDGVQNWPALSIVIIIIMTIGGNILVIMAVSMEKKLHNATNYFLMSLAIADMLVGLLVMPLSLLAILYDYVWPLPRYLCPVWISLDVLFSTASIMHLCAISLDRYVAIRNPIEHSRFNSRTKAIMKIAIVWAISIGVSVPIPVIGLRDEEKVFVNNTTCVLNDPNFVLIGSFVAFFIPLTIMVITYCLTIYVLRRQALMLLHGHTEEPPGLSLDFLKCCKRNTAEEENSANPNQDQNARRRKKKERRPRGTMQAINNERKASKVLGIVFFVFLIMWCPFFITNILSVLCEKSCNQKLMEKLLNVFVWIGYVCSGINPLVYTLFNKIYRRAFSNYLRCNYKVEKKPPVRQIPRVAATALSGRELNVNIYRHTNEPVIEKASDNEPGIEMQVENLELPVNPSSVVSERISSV
Method: The Kd value is calculated when the lot of the cell membrane is changed. 1 mmol/L non-specific binding calculating compound dissolved in DMSO or DMSO is previously dispensed to the microplate by 0.5 µL, and the cell membrane is diluted with an Assay buffer. The radioactive ligand solution is diluted step by step, and counts are checked with a liquid scintillator. The Assay buffer containing diluted cell membranes is dispensed by 50 µL/well into the microplate. The radioactive ligand solution is then dispensed by 50 µL/well into the microplate and the plate is sealed. The microplate is allowed to stand at 37°C for 2 hours. During this time, 50 mmol/L Tris-HCl (pH 7.4) is dispensed by 50 µL/well into the UniFilter plate and allowed to stand at 4°C for 1 hour or longer. Thereafter, filtration is performed with a Cell Harvester (PerkinElmer). The radioactive ligand solution is dispensed by 10 µL/well into empty wells of the UniFilter plate. After drying the UniFilter plate at room temperature, MicroScinti20 is dispensed by 50 µL/well into the UniFilter plate, and the plate is sealed. UniFilter plate is allowed to stand at room temperature overnight. The radioactivity of [^3H]-Mesulergine bound to the 5-HT2C receptor is measured using Microbeta2 (PerkinElmer) at a measurement time of 1 min/well. The Saturation curve is drawn from the measured value, and the Kd value is calculated from the slope of the Scatchard Plot.
A compound solution dissolved in DMSO is dispensed to a microplate by 0.5 µL, and a cell membrane and a hot ligand are each diluted with an Assay buffer. The Assay buffer containing diluted cell membrane is then dispensed by 50 µL/well into the microplate. The radioactive ligand solution is then dispensed by 50 µL/well into the microplate and the plate is sealed. The microplate is then allowed to stand at 37°C for 2 hours. During this time, 50 mmol/L Tris-HCl (pH 7.4) is dispensed by 50 µL/well into the UniFilter plate and allowed to stand at 4°C for 1 hour or longer. Thereafter, filtration is performed with a Cell Harvester (PerkinElmer). After drying the UniFilter plate at room temperature, MicroScinti20 is dispensed by 50 µL/well into the UniFilter plate, and the plate is sealed. UniFilter plate is allowed to stand at room temperature overnight. The radioactivity of [^3H]-Mesulergine bound to the 5-HT2C receptor is measured using Microbeta2 (PerkinElmer) at a measurement time of 1 min/well. Non-specific binding is calculated from the radioactivity of [^3H]-Mesulergine in the presence of 500 µmol/L Ketanserin of unlabeled ligand, and total binding is calculated from the radioactivity of [^3H]-Mesulergine in the absence of the compound of the present invention (Vehicle). Finally, the Ki value is calculated from the dose-response curve.
(The binding activity of the compound according to the present invention is calculated from the following binding inhibition rate (%).) Inhibition rate (%) = [1−(c−a)/(b−a)] × 100 [formula] • a; average cpm of non-specific binding • b; average cpm of total binding • c; cpm in the presence of the test compound
The compounds of the present invention were tested essentially as described above.

[2] = target: T2, human recombinant 5-HT2A receptor (Homo sapiens, UniProt P28223); experiment: Test Example 1-2: 5-HT2A receptor binding inhibition test ([3H]-Ketanserin; non-specific ligand Ketanserin)
T2 construct: expressed in transfected cells; host or cells: Jump-In HEK cells (membrane preparation)
Method in brief: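 Membranes expressing the receptor were incubated with [3H]-ketanserin and compound for 1.5 h at 25 °C, then filtered onto plates presoaked in 50 mmol/L Tris-HCl pH 7.4 and scintillation-counted. Non-specific binding was defined with 500 µmol/L unlabeled ketanserin. Ki was taken from dose-response curves, with Kd set for each membrane lot by Scatchard analysis.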

[3] = target: T1, human recombinant 5-HT2C receptor; experiment: Test Example 2: 5-HT2C receptor binding inhibition test ([3H]-Mesulergine; non-specific ligand Serotonin HCl); details: human serotonin 5-HT2C receptor binding activity
Method in brief: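 Filtration binding to membranes bearing human 5-HT2C with [3H]-mesulergine, 2 h at 37°C; non-specific binding defined with 500 µmol/L serotonin HCl, total binding with vehicle. Inhibition rate computed from cpm; Ki derived from dose-response curve, with ligand Kd from Scatchard analysis of saturation binding.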

[4] = [3H]-Ketanserin, non-specific binding with 500 µmol/L Ketanserin, room temperature (25°C), 1.5 hours, read-out: h 5-HT2A Ki

T2 sequence (P28223 whole entry): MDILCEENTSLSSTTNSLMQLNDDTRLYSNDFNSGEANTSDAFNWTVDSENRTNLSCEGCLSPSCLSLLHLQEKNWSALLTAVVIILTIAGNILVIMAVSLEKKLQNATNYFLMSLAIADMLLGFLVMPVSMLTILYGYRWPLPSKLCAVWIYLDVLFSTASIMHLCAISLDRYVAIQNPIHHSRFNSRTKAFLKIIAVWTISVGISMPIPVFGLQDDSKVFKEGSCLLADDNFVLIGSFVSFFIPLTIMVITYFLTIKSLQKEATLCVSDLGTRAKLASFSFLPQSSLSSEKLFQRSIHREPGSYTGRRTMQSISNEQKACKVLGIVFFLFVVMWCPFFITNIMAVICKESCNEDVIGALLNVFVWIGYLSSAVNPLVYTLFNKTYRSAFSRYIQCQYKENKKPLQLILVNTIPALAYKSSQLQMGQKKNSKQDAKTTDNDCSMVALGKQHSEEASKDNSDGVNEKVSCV

Cc1noc(C)c1-c1cc(Nc2ncc(C(F)(F)F)cc2F)ccc1OCCO [Compound I-010]
pKi [1]: 8.85
pKi [2, 4]: 9.61

OCCOc1ccc(Nc2ncc(C(F)(F)F)cc2F)cc1-c1ccncc1Cl [Compound I-011]
pKi [1]: 8.34
pKi [2, 4]: 9.88

Cc1cnccc1-c1cc(Nc2ncc(C(F)(F)F)cc2F)ccc1OCCO [Compound I-012]
pKi [1]: 8.19
pKi [2, 4]: 9.57

Cc1ncccc1-c1cc(Nc2ncc(C(F)(F)F)cc2F)ccc1OCCO [Compound I-013]
pKi [1]: 8.14
pKi [2, 4]: 9.48

COc1ncccc1-c1cc(Nc2ncc(C(F)(F)F)cc2F)ccc1OCCO [Compound I-014]
pKi [1]: 8.05
pKi [2, 4]: 9.38

Cn1ncc(Cl)c1-c1cc(Nc2ncc(C(F)(F)F)cc2F)ccc1OCCO [Compound I-015]
pKi [1]: 9.61
pKi [2, 4]: 9.71

Cn1ncc(Br)c1-c1cc(Nc2ncc(F)cc2F)ccc1OCCO [Compound I-016]
pKi [1]: 9.16
pKi [2, 4]: 9.55

Cn1ncc(Br)c1-c1cc(Nc2ncc(Cl)cc2F)ccc1OCCO [Compound I-017]
pKi [1]: 9.38
pKi [2, 4]: 9.58

Cn1ncc(F)c1-c1cc(Nc2ncc(C(F)(F)F)cc2F)ccc1OCCO [Compound I-018]
pKi [1]: 8.72
pKi [2, 4]: 9.63

OCCOc1ccc(Nc2ncc(C(F)(F)F)cc2F)cc1-c1c(F)cccc1Cl [Compound I-019]
pKi [1]: 8.51
pKi [2, 4]: 9.26

Cc1cccc(F)c1-c1cc(Nc2ncc(C(F)(F)F)cc2F)ccc1OCCO [Compound I-020]
pKi [1]: 8.27
pKi [2]: 8.95

Cc1cc(C)c(-c2cc(Nc3ncc(C(F)(F)F)cc3F)ccc2OCCO)c(C)c1 [Compound I-021]
pKi [1]: 8.39
pKi [2, 4]: 9.14

Cc1nn(C)c(C)c1-c1cc(Nc2ncc(C(F)(F)F)cc2F)ccc1OCCO [Compound I-022]
pKi [1]: 7.32
pKi [2, 4]: 9.37

Cc1n[nH]c(C)c1-c1cc(Nc2ncc(C(F)(F)F)cc2F)ccc1OCCO [Compound I-023]
pKi [1]: 8.44
pKi [2, 4]: 9.61

Cc1ccncc1-c1cc(Nc2ncc(C(F)(F)F)cc2F)ccc1OCCO [Compound I-024]
pKi [1]: 8.13
pKi [2, 4]: 9.22

Cc1ccc(-c2cc(Nc3ncc(C(F)(F)F)cc3F)ccc2OCCO)c(C)n1 [Compound I-025]
pKi [1]: 8.43
pKi [2, 4]: 9.60

OCCOc1ccc(Nc2ncc(C(F)(F)F)cc2F)cc1-c1ccnc(F)c1Cl [Compound I-026]
pKi [1]: 8.10
pKi [2, 4]: 9.05

Cn1cnc(Br)c1-c1cc(Nc2ncc(C(F)(F)F)cc2F)ccc1OCCO [Compound I-027]
pKi [1]: 9.58
pKi [2, 4]: 9.53

Cc1cnc(Nc2ccc(OCCO)c(-c3c(Br)cnn3C)c2)s1 [Compound I-028]
pKi [1]: 8.30
pKi [2, 4]: 9.68

Cn1ncc(Br)c1-c1cc(Nc2nc3ccccc3s2)ccc1OCCO [Compound I-029]
pKi [1]: 9.20
pKi [2, 4]: 9.54

Cc1cncc(C)c1-c1cc(Nc2ncc(C(F)(F)F)cc2F)ccc1OCCO [Compound I-030]
pKi [1]: 9.06
pKi [2, 4]: 9.51

Cn1cnc(Br)c1-c1cc(Nc2ncc(F)cc2F)ccc1OCCO [Compound I-032]
pKi [1]: 8.08
pKi [2, 4]: 9.13

COCc1nc(C)c(-c2nc(Nc3ccc(C(F)(F)F)c(OC)n3)c(F)cc2OCCO)c(C)n1 [Compound I-394]
pKi [2, 4]: 8.87
pKi [3]: 8.67

COCc1nc(C)c(-c2nc(Nc3ccc(OC(F)(F)F)c(C)n3)c(F)cc2OCCO)c(C)n1 [Compound I-395]
pKi [2, 4]: 8.47
pKi [3]: 8.74

COCc1nc(C)c(-c2nc(Nc3ccc(C(F)(F)F)c(C#N)n3)c(F)cc2OCCO)c(C)n1 [Compound I-396]
pKi [2, 4]: 8.00
pKi [3]: 7.76

Cn1ncc(Br)c1-c1cc(Nc2ncc(C(F)(F)F)cn2)c(Cl)cc1OCCO [Compound I-397]
pKi [2, 4]: 9.38
pKi [3]: 8.74

Cn1ncc(Br)c1-c1cc(Nc2ncc(Cl)cn2)c(Cl)cc1OCCO [Compound I-398]
pKi [2, 4]: 9.24
pKi [3]: 8.28

Cn1ncc(Br)c1-c1cc(Nc2ncc(C(F)(F)F)cc2F)c(Cl)cc1OCCO [Compound I-399]
pKi [2, 4]: 9.46
pKi [3]: 9.07

Cn1ncc(Br)c1-c1cc(Nc2ccc(C(F)(F)F)cn2)c(Cl)cc1OCCO [Compound I-400]
pKi [2, 4]: 9.47
pKi [3]: 8.86

Cn1ncc(Br)c1-c1cc(Nc2ccc(Cl)cn2)c(Cl)cc1OCCO [Compound I-401]
pKi [2, 4]: 9.68
pKi [3]: 9.07

Cn1ncc(Br)c1-c1cc(Nc2ccc(C(F)(F)F)nn2)c(F)cc1OCCO [Compound I-402]
pKi [2, 4]: 9.27
pKi [3]: 7.96

Cn1ncc(Br)c1-c1cc(Nc2ccc(C(F)F)nn2)c(F)cc1OCCO [Compound I-403]
pKi [2, 4]: 9.25
pKi [3]: 7.52

Cn1ncc(Br)c1-c1cc(Nc2cnc(C(F)(F)F)cn2)c(F)cc1OCCO [Compound I-404]
pKi [2, 4]: 9.44
pKi [3]: 8.24

Cn1ncc(Br)c1-c1cc(Nc2nc3ccc(F)cc3s2)c(F)cc1OCCO [Compound I-405]
pKi [2, 4]: 9.56
pKi [3]: 9.53

Cn1ncc(Br)c1-c1cc(Nc2nc3ccc(F)cc3[nH]2)c(F)cc1OCCO [Compound I-406]
pKi [2, 4]: 9.33
pKi [3]: 8.61

Cn1ncc(Br)c1-c1cc(Nc2cc(C(F)(F)F)ccn2)c(F)cc1OCCO [Compound I-407]
pKi [2, 4]: 9.65
pKi [3]: 8.44

Cn1ncc(Br)c1-c1cc(Nc2nc3ccc(F)cc3s2)c(Cl)cc1OCCO [Compound I-408]
pKi [2, 4]: 9.42
pKi [3]: 8.72

Cn1ncc(Cl)c1-c1cc(Nc2ncc(C(F)(F)F)cc2F)c(Cl)cc1OCCO [Compound I-409]
pKi [2, 4]: 9.38
pKi [3]: 8.67

Cn1ncc(Cl)c1-c1cc(Nc2ncc(C(F)(F)F)cn2)c(Cl)cc1OCCO [Compound I-410]
pKi [2, 4]: 9.24
pKi [3]: 8.40
